Measurements taken from patent US10287530B2, “Surfactants based on monounsaturated fatty alcohol derivatives” (priority 2013, dated 2019).
Where “and” joins values, the source holds several entries; their conditions need not be identical. Equal values may be shown once. Read-outs that look alike come from different tables or passages of the source.

Key:
[1] = format: physicochemical; conditions: for Emulsion stability, mL separation, 1 h / Emulsion stability, mL separation, 24 h: 342 ppm water; for Rating: overall, versus control
Protocol: Surfactant candidates for water soluble herbicide applications are examined as a replacement for the anionic, nonionic, or anionic/nonionic blend portion and compared to a known industry adjuvant standard for use in paraquat, a water soluble herbicide concentrate formulation. A standard dilution test is conducted whereby the concentrates are diluted in water to determine if solubility is complete.
A known industry paraquat adjuvant (2.8 g) is added and vigorously mixed for 30 s. Deionized water (8.07 g) is added, and mixing resumes for 30 s. […] The cylinder is stoppered and inverted ten times. Solubility is recorded as complete or incomplete. Cylinders are allowed to stand and the amount (in mL) and type of separation are recorded after 30 min., 1 h, 2 h, and 24 h. Results of the solubility testing appear in Table 4 below.
An eight to ten mole alkyl phenol ethoxylate surfactant (0.7 g) is added and vigorously mixed for 30 s. Test sample (0.7 g) is added and mixing resumes for 30 s. Deionized water (4.03 g) is added, and mixing resumes for 30 s.
Test sample (0.7 g) is added and vigorously mixed for 30 s. Sodium linear alkylbenzene sulfonate (“NaLAS,” 0.7 g) is added and mixing resumes for 30 s. Deionized water (4.03 g) is added, and mixing resumes for 30 s.
Test sample (1.4 g) is added and vigorously mixed for 30 s. Deionized water (4.03 g) is added, and mixing resumes for 30 s.

[2] = Surfactant phase behavior study by cross-polarized microscopy; format: physicochemical; conditions: in deionized water, room temperature (20-22° C.); boundaries are estimates (±5%)
Protocol: Phase behavior is observed using an Olympus BH-2 cross-polarized microscope at 100-400× and room temperature (20° C. to 22° C.). The monounsaturated C11 alcohol derivatives (sulfates, ethoxylate sulfates, and alcohol ethoxylates) are compared with their saturated analogs. Samples are prepared by diluting the most concentrated product gradually with deionized water. When the surfactant concentration approaches a phase transition, the concentration is varied at 2-4% intervals to estimate the phase boundary. The actives level reported in Table 6 for each phase boundary is within ±5% of the true boundary. Samples are loaded between a microscope slide and cover glass and are allowed to equilibrate before observation. Microscopic texture is analyzed and used to determine the phase. For some samples, an AR 2000 rheometer (TA Instruments) is used to measure viscosity at 25° C. to further verify phase behavior.

[3] = Interfacial tension (IFT) against light mineral oil, synergy study with cationic surfactant; format: physicochemical; conditions: for IFT at 0.1% actives/mineral oil (blend): 1:1 molar blend of the anionic with Ammonyx Cetac 30, 0.1% actives, light mineral oil; for Calculated IFT (no synergy): expected IFT of the 1:1 molar blend with Ammonyx Cetac 30 by ideal mixing; for Synergy?: measured versus expected IFT of the 1:1 molar blend with Ammonyx Cetac 30; for IFT at 0.1% actives (single component): 0.1 wt. % active against light mineral oil, ambient temperature
Protocol: The surfactant blends tested are prepared at a 1:1 molar ratio without any pH adjustment. Dilutions are made using deionized water to the desired actives level. Actives amounts are wt. % unless indicated otherwise. Appearances are reported at ambient temperature for samples prepared within the last 24 h.
Interfacial tension (IFT) of all the individual components and their blends is measured at 0.1 wt. % active against light mineral oil at ambient temperature using a Kruss DSA-20 pendent drop tensiometer. The drop is blown out at 600 μL/min., and a video is recorded for 100 s. The video frames taken during the last 15 s are analyzed and used for the IFT calculation.
For blends having an IFT less than 0.5 mN/m, the IFT is determined using a spinning drop tensiometer (University of Texas 500) at 25° C. Oil density=0.877 g/cm^3 and surfactant density=0.997 g/cm^3 are used for the IFT calculation.
The expected IFT for a blend is calculated based on ideal mixing (non-synergistic) using the active component in each blend. The equation used is given as: Expected IFT=X*IFTa+(1−X)*IFTb where X is the actives % of component A, IFTa is the IFT of component A, and IFTb is the IFT of component B. If the measured IFT for a blend is less than the expected IFT, then the blend is synergistic. If the measured IFT for a blend is higher than the expected IFT, the system is antagonistic.

[4] = Adjuvant (anionic/nonionic) test sample

Q: For “Undecylenic Alcohol, 1EO Ether Sulfate, Ammonium Salt [Unsat. 1EO NH4 sulfate]”, which “Emulsion stability, mL separation, 1 h” value [1, 4] is on record?
A: The value was 0 mL.

Q: What about the “Emulsion stability, mL separation, 24 h” value [1, 4] of the same compound?
A: Its value is 0 mL.

Q: What about the “Emulsion stability, mL separation, 24 h” value ([1]; Anionic test sample) of the same compound?
A: Its value is 0 mL.

Q: And the “Emulsion stability, mL separation, 1 h” value ([1]; Nonionic test sample)?
A: The value was 0 mL.

Q: What about the Rating [1] of the same compound?
A: Its Rating is “good”.

Q: What about the “Estimated Phase Region as a Function of % Actives Level: Hexagonal” value [2] of the same compound?
A: The value was 31-58 % actives.

Q: And the “Estimated Phase Region as a Function of % Actives Level: Isotropic Clear” value [2]?
A: Its value is 0-31 % actives.

Q: And the “Estimated Phase Region as a Function of % Actives Level: Lamellar” value [2]?
A: Its value is 58-91 % actives.

Q: And the “Estimated Phase Region as a Function of % Actives Level: Solid/gum/paste” value [2]?
A: Its value is 91-100 % actives.

Q: What about the “IFT at 0.1% actives/mineral oil (blend)” value [3] of the same compound?
A: Its value is 0.60 mN/m.

Q: And the “Calculated IFT (no synergy)” value [3]?
A: Its value is 8.8 mN/m.

Q: And the “Synergy?” value [3]?
A: The value was “very high”.

Q: What about the “IFT at 0.1% actives (single component)” value [3] of the same compound?
A: The value was 17.22 mN/m.

Q: What does the source list for “1-Undecanol, 1EO Ether Sulfate, Ammonium Salt [Sat. 1EO NH4 sulfate]”?
A: Emulsion stability, mL separation, 1 h ([1]; Anionic test sample): 0 mL; Emulsion stability, mL separation, 24 h ([1]; Nonionic test sample): 0 mL; Rating [1]: good; Estimated Phase Region as a Function of % Actives Level: Cubic [2]: 58-67 % actives; Estimated Phase Region as a Function of % Actives Level: Hexagonal [2]: 26-58 % actives; Estimated Phase Region as a Function of % Actives Level: Isotropic Clear [2]: 0-26 % actives; Estimated Phase Region as a Function of % Actives Level: Lamellar [2]: 67-85 % actives; Estimated Phase Region as a Function of % Actives Level: Solid/gum/paste [2]: 85-100 % actives; IFT at 0.1% actives/mineral oil (blend) [3]: 0.85 mN/m; Calculated IFT (no synergy) [3]: 6.2 mN/m; Synergy? [3]: high; IFT at 0.1% actives (single component) [3]: 12.40 mN/m

Q: With `CCCCCCCCCCCCCCCC[N+](C)(C)C.[Cl-]` [Ammonyx ® Cetac 30 (cetrimonium CI), cetrimonium CI] as the compound, how does the “IFT at 0.1% actives (single component)” value [3] read?
A: Its value is 0.35 mN/m and 0.38 mN/m.
